Data published in patent US10106578B2, “Melanocortin-1 receptor-specific linear peptides” (Palatin Technologies, Inc., priority 2012, dated 2018).
Where a SMILES comes first, the peptide text is derived from it. [ ]: non-standard residue; d: D form. Nle = CCCC[C@H](N)C(=O)O; Dab = NCC[C@H](N)C(=O)O; Sar = CNCC(=O)O

What was measured:
hMCR-4 = biological target: T1, hMCR-4 (Homo sapiens, UniProt P32245); experiment: Competitive inhibition binding assay using [I125]-NDP-α-MSH, hMCR-4 membranes; settings: HEK-293 membranes, recombinant human MCR-4, [I125]-NDP-α-MSH; read-out: MC-4 Ki (average)
T1 construct: expressed in transfected cells; host or cells: HEK-293 cells (membrane homogenates)
Description: (§1) A competitive inhibition binding assay was performed using membrane homogenates prepared from HEK-293 cells that express recombinant hMCR-1a or hMCR-4 (in each instance where the h prefix refers to human), or alternatively membrane homogenates from B16-F10 mouse melanoma cells containing endogenous murine MCR-1. In the examples that follow, all MCR-1 and MCR-4 values are for human recombinant receptors, unless otherwise noted. Assays were performed in 96 well polypropylene round-bottom plates (VWR catalog number 12777-030). Membrane homogenates were incubated with 0.1 nM [I^125]-NDP-α-MSH (Perkin Elmer) and increasing concentrations of test peptides of the present invention in buffer containing 25 mM HEPES buffer (pH 7.5) with 100 mM NaCl, 2 mM CaCl2, 2 mM MgCl2, 0.3 mM 1,10-phenanthroline, and 0.2% bovine serum albumin. After incubation for 90 minutes at 37° C., the assay mixture was filtered onto GF/B Unifilter plates (Perkin-Elmer catalog number 6005177) and washed with 3 mL of ice-cold buffer per well. Filters were air dried and 35 μL of scintillation cocktail added to each well. Plates were counted in a Microbeta counter for bound radioactivity. Non-specific binding was measured by inhibition of binding of [I^125]-NDP-α-MSH in the presence of 1 μM NDP-α-MSH. Maximal specific binding (100%) was defined as the difference in radioactivity (cpm) bound to cell membranes in the absence and presence of 1 μM NDP-α-MSH. Each assay was conducted in duplicate and the actual mean values are described, with results less than 0% reported as 0%. Ki values for peptides of the present invention were determined using Graph-Pad PRISM® curve-fitting software.
(§2) Peptides of the following structures were synthesized and purified as described in Section 5 above, with the resulting peptide having the structure depicted. After synthesis and purification, the foregoing peptide was tested as described in Section 8 above, and average MCR-1 and MCR-4 Ki values determined as indicated. All Ki values were determined using [I^125]-NDP-α-MSH. All results are expressed in nM except for Emax values, which are percentage values.

hMCR-1a = biological target: T2, hMCR-1a (Homo sapiens, UniProt Q01726); experiment: Competitive inhibition binding assay using [I125]-NDP-α-MSH, hMCR-1a membranes; settings: HEK-293 membranes, recombinant human MCR-1, [I125]-NDP-α-MSH; read-out: MC-1 Ki (average)
T2 construct: expressed in transfected cells; host or cells: HEK-293 cells (membrane homogenates)
Description: as §1, §2

hMCR-1 = biological target: T3, hMCR-1 (Homo sapiens, UniProt Q01726); experiment: Assay for agonist activity: cAMP accumulation in HBL human melanoma cells; type: cell-based; settings: for Emax: compared to reference agonist NDP-α-MSH, read-out: MC-1 Emax (average; cAMP HBL); for EC50: read-out: MC-1 EC50 (average; cAMP HBL)
T3 construct: endogenous in cells; host or cells: HBL human melanoma cell line
Text: Accumulation of intracellular cAMP was examined as a measure of the ability of the peptides of the present invention to elicit a functional response in a human melanoma cell line, HBL, that express hMCR-1 (see Kang, L., et al., “A selective small molecule agonist of melanocortin-1 receptor inhibits lipopolysaccharide-induced cytokine accumulation and leukocyte infiltration in mice,” J. Leuk. Biol. 80:897-904 (2006)) or HEK-293 cells that express hMCR-4. Confluent HBL cells that express hMCR-1 or HEK-293 cells that express recombinant hMCR-4 were detached from culture plates by incubation in enzyme-free cell dissociation buffer. Dispersed cells were suspended in Earle's Balanced Salt Solution containing 10 mM HEPES (pH 7.5), 1 mM MgCl2, 1 mM glutamine, 0.5% albumin and 0.3 mM 3-isobutyl-1-methyl-xanthine (IBMX), a phosphodiesterase inhibitor. The cells were plated in 96-well plates at a density of 0.4×10^5 cells per well for HBL cells and 0.5×10^5 cells per well for HEK-293 cells and pre-incubated for 10 minutes. Cells were exposed for 15 minutes at 37° C. to peptides of the present invention dissolved in DMSO (final DMSO concentration of 1%) at a concentration range of 0.05-5000 nM in a total assay volume of 200 μL. NDP-α-MSH was used as the reference agonist. cAMP levels were determined by an HTRF® cAMP cell-based assay system from Cisbio Bioassays utilizing cryptate-labeled anti-cAMP and d2-labeled cAMP, with plates read on a Perkin-Elmer Victor plate reader at […]. Data analysis was performed by nonlinear regression analysis with Graph-Pad PRISM® software. Maximum efficacy (Emax) values were determined for each test peptide of the present invention, compared to that achieved by the reference melanocortin agonist NDP-α-MSH.
as §2

T3 sequence (Q01726 whole entry): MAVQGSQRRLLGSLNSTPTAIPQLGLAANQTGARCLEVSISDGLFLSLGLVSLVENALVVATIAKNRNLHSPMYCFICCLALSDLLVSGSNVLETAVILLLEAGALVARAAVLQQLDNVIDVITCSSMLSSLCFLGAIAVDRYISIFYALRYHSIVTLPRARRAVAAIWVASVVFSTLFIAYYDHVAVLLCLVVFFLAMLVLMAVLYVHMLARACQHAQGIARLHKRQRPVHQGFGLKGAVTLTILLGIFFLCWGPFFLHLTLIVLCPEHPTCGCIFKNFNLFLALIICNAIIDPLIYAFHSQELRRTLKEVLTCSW
T2 sequence (Q01726 whole entry): as above
T1 sequence (P32245 whole entry): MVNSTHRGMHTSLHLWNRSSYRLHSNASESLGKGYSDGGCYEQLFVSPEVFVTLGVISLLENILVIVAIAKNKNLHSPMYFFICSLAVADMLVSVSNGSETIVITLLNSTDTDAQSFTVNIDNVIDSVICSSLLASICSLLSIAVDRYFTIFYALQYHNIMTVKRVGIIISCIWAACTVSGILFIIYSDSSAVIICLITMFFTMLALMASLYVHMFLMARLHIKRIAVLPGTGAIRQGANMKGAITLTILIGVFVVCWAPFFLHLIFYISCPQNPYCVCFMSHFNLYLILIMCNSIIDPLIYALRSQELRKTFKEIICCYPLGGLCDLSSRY

Ki (hMCR-4) [nM]	Ki (hMCR-1a) [nM]	Emax (hMCR-1) [%]	EC50 (hMCR-1) [nM]	Structure (SMILES)
650	2	90	0.17	CCCC[C@H](NC(C)=O)C(=O)N[C@@H](C)C(=O)N[C@@H](Cc1c[nH]cn1)C(=O)N[C@H](Cc1ccccc1)C(=O)N[C@@H](CCCNC(=N)N)C(=O)N1CCC[C@H]1C(=O)N[C@H](Cc1c[nH]c2ccccc12)C(N)=O [Example 9.13, Ac-Nle-Ala-His-D-Phe-Arg-Pro-D-Trp-NH2] (Ac-[Nle]AH[dF]RP[dW]-NH2)
215	7	70		CCCC[C@H](NC(C)=O)C(=O)N[C@@H](C)C(=O)N[C@@H](Cc1c[nH]cn1)C(=O)N[C@H](Cc1ccccc1)C(=O)N[C@@H](CCCNC(=N)N)C(=O)N[C@@H](C)C(=O)N[C@H](Cc1c[nH]c2ccccc12)C(N)=O [Example 9.9, Ac-Nle-Ala-His-D-Phe-Arg-Ala-D-Trp-NH2] (Ac-[Nle]AH[dF]RA[dW]-NH2)
870	2	77	0.17	CCCC[C@H](NC(C)=O)C(=O)N[C@@H](C)C(=O)N[C@@H](Cc1c[nH]cn1)C(=O)N[C@H](Cc1ccccc1)C(=O)N[C@@H](CCCNC(=N)N)C(=O)N(C)CC(=O)N[C@@H](Cc1c[nH]c2ccccc12)C(N)=O [Example 9.4, Ac-Nle-Ala-His-D-Phe-Arg-Sar-Trp-NH2] (Ac-[Nle]AH[dF]R[Sar]W-NH2)
7850	2	101		CCCC[C@H](NC(C)=O)C(=O)N[C@@H](C)C(=O)N[C@@H](CCN)C(=O)N[C@H](Cc1ccccc1)C(=O)N[C@@H](CCCNC(=N)N)C(=O)N[C@@H](C)C(=O)N[C@@H](Cc1c[nH]c2ccccc12)C(N)=O [Example 9.22, Ac-Nle-Ala-Dab-D-Phe-Arg-Ala-Trp-NH2] (Ac-[Nle]A[Dab][dF]RAW-NH2)
